According to ChEMBL document CHEMBL1201862, “PubChem BioAssay data set” (2004):
Activity calls are given as the source filed them. For most assays here, no stated cut-off is given here; in the data, actives have a measured EC50 and inactives only a lower limit.

Experiments:
[1] = target: T1, Corticotropin-releasing factor receptor 2/Corticotropin-releasing factor-binding protein (Homo sapiens, UniProt P24387+Q13324); assay: Dose Response confirmation of uHTS hits for small molecule antagonists of the CRF-binding protein and CRF-R2 receptor complex.; assay type: functional; details: read-out: IC50_Mean
T1 sequence (Q13324 whole entry): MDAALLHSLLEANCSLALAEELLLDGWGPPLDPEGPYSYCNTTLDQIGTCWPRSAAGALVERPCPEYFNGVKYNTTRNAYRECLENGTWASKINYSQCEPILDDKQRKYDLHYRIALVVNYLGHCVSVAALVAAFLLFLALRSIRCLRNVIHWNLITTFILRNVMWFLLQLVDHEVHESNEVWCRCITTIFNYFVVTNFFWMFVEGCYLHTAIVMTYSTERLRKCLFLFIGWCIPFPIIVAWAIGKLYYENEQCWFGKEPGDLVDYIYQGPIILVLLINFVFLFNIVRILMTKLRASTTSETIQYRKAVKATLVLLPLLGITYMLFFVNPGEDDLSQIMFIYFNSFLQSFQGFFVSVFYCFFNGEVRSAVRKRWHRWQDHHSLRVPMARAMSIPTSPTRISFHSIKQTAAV
T1 sequence (P24387 whole entry): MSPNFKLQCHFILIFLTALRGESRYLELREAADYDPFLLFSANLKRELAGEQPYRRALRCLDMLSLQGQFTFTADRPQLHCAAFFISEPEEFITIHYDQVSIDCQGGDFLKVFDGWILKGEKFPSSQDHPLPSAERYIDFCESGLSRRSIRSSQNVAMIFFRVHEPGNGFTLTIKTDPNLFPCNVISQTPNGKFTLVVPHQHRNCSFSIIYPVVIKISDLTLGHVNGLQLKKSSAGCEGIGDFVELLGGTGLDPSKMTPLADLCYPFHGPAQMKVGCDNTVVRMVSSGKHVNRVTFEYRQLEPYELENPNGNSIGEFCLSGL

[2] = target: T1, Corticotropin-releasing factor receptor 2/Corticotropin-releasing factor-binding protein; assay: activators of CRF receptor 2 with binding protein – uHTS hits, confirmation (AID 602473); assay type: functional; details: read-out: EC50_Mean
[3] = tested on: Streptococcus sp. 'group A'; assay: Streptococcus pyogenes SK(-)GAS viability under kanamycin – luminescence, BacTiterGlo, confirmation, counter-screen for streptokinase expression inhibitor project, dose response (AID 1900); assay type: functional, organism-based
[4] = target: T2, Streptokinase A (Streptococcus pyogenes serotype M1, UniProt P10520); assay: viability-normalized secreted streptokinase activity reduction – plasminogen activation absorbance, OD405, dose response (AID 1914); assay type: functional, Streptococcus pyogenes M1 GAS;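 further: secreted streptokinase activity via plasminogen activation per viability signal from cell pellet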
T2 sequence (P10520 whole entry): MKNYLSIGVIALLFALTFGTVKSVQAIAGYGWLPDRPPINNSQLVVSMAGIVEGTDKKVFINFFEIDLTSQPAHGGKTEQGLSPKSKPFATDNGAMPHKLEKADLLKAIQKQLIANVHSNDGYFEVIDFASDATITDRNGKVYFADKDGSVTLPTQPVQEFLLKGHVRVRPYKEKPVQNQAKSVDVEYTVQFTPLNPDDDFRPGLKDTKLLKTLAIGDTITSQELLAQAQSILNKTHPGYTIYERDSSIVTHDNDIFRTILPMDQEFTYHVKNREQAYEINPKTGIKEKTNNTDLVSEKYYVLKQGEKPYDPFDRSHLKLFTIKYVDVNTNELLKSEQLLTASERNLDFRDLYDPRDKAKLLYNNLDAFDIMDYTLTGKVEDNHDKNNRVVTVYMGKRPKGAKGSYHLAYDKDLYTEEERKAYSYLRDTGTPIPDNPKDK

[5] = tested on: Streptococcus; assay: GAS UMAA2166 growth inhibition – luminescence, BacTiterGlo, counter-screen for streptokinase expression inhibitor project, dose response (AID 1915); assay type: functional, organism-based;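 further: potency for reduction of bacterial viability or growth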
[6] = tested on: INS1; assay: INS-1E survival protection against cytokine death – cell-based, luminescence, retest, dose response (AID 449756); assay type: functional; details: Rattus norvegicus;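 further: cell death triggered by IL-1 beta plus TNF-alpha plus IFN-gamma mixture; protective hits raise ATP signal compared with cytokine alone wells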
[7] = target: Cytochrome P450 3A4 (Homo sapiens, UniProt P08684);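 further: CYP3A4 tested as one member of a cytochrome P450 panel screen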
Chain of Cytochrome P450 3A4 (P08684 whole entry): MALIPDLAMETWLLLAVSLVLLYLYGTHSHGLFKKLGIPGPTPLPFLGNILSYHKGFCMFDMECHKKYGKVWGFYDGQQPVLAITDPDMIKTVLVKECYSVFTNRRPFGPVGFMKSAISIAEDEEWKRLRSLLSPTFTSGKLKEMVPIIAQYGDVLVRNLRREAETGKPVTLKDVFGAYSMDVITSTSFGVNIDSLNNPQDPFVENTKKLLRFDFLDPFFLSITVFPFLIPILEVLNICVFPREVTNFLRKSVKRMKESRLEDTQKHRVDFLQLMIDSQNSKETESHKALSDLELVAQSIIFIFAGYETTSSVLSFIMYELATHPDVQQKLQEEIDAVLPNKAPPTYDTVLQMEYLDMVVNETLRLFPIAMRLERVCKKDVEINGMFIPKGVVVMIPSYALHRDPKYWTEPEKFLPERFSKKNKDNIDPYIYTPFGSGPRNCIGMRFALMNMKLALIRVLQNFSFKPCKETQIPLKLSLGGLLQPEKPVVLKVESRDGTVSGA

Row | SMILES | IC50 [1] | EC50 [2] | EC50 [3] | EC50 [4] | EC50 [5] | AC50 [6] | AC50 [7]
1 | O=C(Nc1ccccc1)c1ccccc1OCc1cccc([N+](=O)[O-])c1 | > 47.1 µM (inactive) | > 53 µM (inactive) | – | – | – | – | –
2 | Cc1cc(C(=O)Nc2ccc3c(c2)OCCO3)nn1C(C)(C)C | > 47.1 µM (inactive) | > 53 µM (inactive) | – | – | – | – | –
3 | COCC1CCN(C(=O)CCc2nnc(C3(c4ccc(Cl)cc4)CCC3)o2)C1 (stereo not given) | – | – | > 150 µM (not active) | > 150 µM (not active) | > 150 µM (not active) | – | –
4 | COc1ccc(S(=O)(=O)Nc2c(C)n(C)n(-c3ccccc3)c2=O)cc1C(=O)O | > 47.1 µM (inactive) | > 53 µM (inactive) | – | – | – | – | –
5 | Cn1cc(CN2CCCC(C(=O)Nc3cccc(-c4cc5ccccc5[nH]4)c3)C2)cn1 (stereo not given) | > 47.1 µM (inactive) | 42.9 µM (active) | – | – | – | – | –
6 | CC(C)(C)N/N=C1\CC(c2ccccc2)Oc2ccccc21 (stereo not given) | – | – | 6.48 µM (active) | 7.08 µM (active) | > 150 µM (not active) | – | –
7 | Fc1ccccc1CNc1ccc(Cl)c(Cl)c1 | – | – | 11.4 µM (active) | > 150 µM (not active) | 63.8 µM (active) | – | –
8 | CC1(C2CC2)NC(=O)N(CC(=O)Nc2ccccc2F)C1=O (stereo not given) | > 47.1 µM (inactive) | > 53 µM (inactive) | – | – | – | – | –
9 | COc1cc(OC)c([C@H]2C=C(C)[C@H]3C[C@@H]2C3(C)C)c(OC)c1 | – | – | 4.7 µM (active) | 63.3 µM (active) | 9.95 µM (active) | – | –
10 | O=C(NCc1cn2ccccc2n1)C1CCC(=O)N(Cc2ccccc2F)C1 (stereo not given) | > 47.1 µM (inactive) | > 53 µM (inactive) | – | – | – | – | –
11 | Cc1cccc(N2C(=O)NC(=O)/C(=C\c3ccc(N4CCOCC4)cc3)C2=O)c1 | > 47.1 µM (inactive) | > 53 µM (inactive) | – | – | – | – | –
12 | O=C(NCc1ccc2c(c1)OCO2)Nc1ccc(F)cc1 | – | – | > 150 µM (not active) | > 150 µM (not active) | > 150 µM (not active) | – | –
13 | CC12CCC(C/C1=N\OC(=O)c1c(F)cccc1F)C2(C)C (stereo not given) | > 47.1 µM (inactive) | > 53 µM (inactive) | – | – | – | – | –
14 | FC(F)(F)c1cccc(-c2nc3nc(Cl)c(Cl)nc3[nH]2)c1 | – | – | 7.96 µM (active) | > 150 µM (not active) | 94.8 µM (active) | 3.23 µM (active) | 5.01 µM (inconclusive)
15 | C/C(=N/NC(=O)CNC(=O)c1cccnc1)c1cccc([N+](=O)[O-])c1 | – | – | > 150 µM (not active) | > 150 µM (not active) | > 150 µM (not active) | – | –
16 | CC(C)NC(=S)N(CCc1ccncc1)C(C)C | > 47.1 µM (inactive) | > 53 µM (inactive) | – | – | – | – | –
17 | COc1ccc(Cc2nnc(NC(=O)Nc3ccc(C)cc3)s2)cc1OC | > 47.1 µM (inactive) | > 53 µM (inactive) | – | – | – | – | –
18 | CCCCN(C(=O)CSc1nnc[nH]1)c1c(N)n(Cc2ccccc2)c(=O)[nH]c1=O | > 47.1 µM (inactive) | > 53 µM (inactive) | – | – | – | – | –
